How the values were obtained:
[1] = test system: human epithelial (A-549) cancer cell line; assay: Antiproliferative assay, A-549; type: cell-based; conditions: A549, read-out: Antiproliferative Activity IC50 ± SEM, A-549
Experimental: (§1) 4.2.1.2. Assay for antiproliferative effect
(§2) To explore the antiproliferative potential of compounds propidium iodide fluorescence assay was performed using different cell lines such as Panc-1 (pancreas cancer cell line), MCF-7 (breast cancer cell line), HT-29 (colon cancer cell line) and A-549 (epithelial cancer cell line), respectively.
(§3) To calculate the total nuclear DNA, a fluorescent dye (propidium iodide, PI) is used which can attach to the DNA, thus offering a quick and precise technique. PI cannot pass through the cell membrane and its signal intensity can be considered as directly proportional to quantity of cellular
(§4) DNA. Cells whose cell membranes are damaged or have changed permeability are counted as dead ones. The assay was performed by seeding the cells of different cell lines at a density of 3000-7500 cells/well (in200μl medium) in culture plates followed by incubation for 24h at 37 °C in humidified 5%CO2/95% air atmospheric conditions. The medium was removed; the compounds were added to the plates at 10 μM concentrations (in 0.1% DMSO) in triplicates, followed by incubation for 48h. DMSO (0.1%) was used as control. After incubation, medium was removed followed by the addition of PI (25 μl, 50μg/mL in water/medium) to each well of the plates. At - 80 °C, the plates were allowed to freeze for 24 h, followed by thawing at 25 °C. A fluorometer (Polar-Star BMG Tech) was used to record the readings at excitation and emission wavelengths of 530 and 620 nm for each well. The percentage cytotoxicity of compounds was calculated using […]
(§5) Where ATC= Absorbance of treated cells and AC= Absorbance of control. Erlotinib was used as positive control in the assay.

[2] = test system: breast cancer (MCF-7) cell line; assay: Antiproliferative assay, MCF-7; type: cell-based; conditions: Homo sapiens, MCF7; read-out: Antiproliferative Activity IC50 ± SEM, MCF-7
Experimental: as §1, §2, §3, §4, §5

[3] = test system: pancreatic cancer (Panc-1) cell line; assay: Antiproliferative assay, Panc-1; type: cell-based; conditions: Homo sapiens, read-out: Antiproliferative Activity IC50 ± SEM, Panc-1
Experimental: as §1, §2, §3, §4, §5

[4] = test system: colon cancer (HT-29) cell line; assay: Antiproliferative assay, HT-29; type: cell-based; conditions: Homo sapiens, read-out: Antiproliferative Activity IC50 ± SEM, HT-29
Experimental: as §1, §2, §3, §4, §5

[5] = Cell viability assay (MTT) on MCF-10A; type: cell-based; conditions: human, MCF-10A mammary gland epithelial cells, MCF-10A cells, four days
Experimental: To assess the viability of compounds IV and Va–i, the human mammary gland epithelial (MCF-10A) cell line was exploited. Compounds IV and Va–i were cultured for four days on MCF-10A cells before being evaluated for vitality using the MTT assay.
To test the viability of the new compounds, the human mammary gland epithelial (MCF-10A) cell line was used. Compounds IV and Va–i were incubated on MCF-10A cells for four days before being tested for viability using the MTT assay. See Supplementary Materials.
4.2. Biological evaluation
4.2.1. Cytotoxic activity using MTT Assay and evaluation of IC50
MTT assay was performed to investigate the effect of the synthesized compounds on mammary epithelial cells (MCF-10A). The cells were propagated in medium consisting of Ham's F-12 medium/ Dulbecco's modified Eagle's medium (DMEM) (1:1) supplemented with 10% foetal calf serum, 2 mM glutamine, insulin (10 μg/mL), hydrocortisone (500 ng/mL) and epidermal growth factor (20 ng/mL). Trypsin ethylenediamine tetra acetic acid (EDTA) was used to passage the cells after every 2-3 days. 96-well flat-bottomed cell culture plates were used to seed the cells at a density of 10^4 cells mL-1. The medium was aspirated from all the wells of culture plates after 24 h followed by the addition of synthesized compounds (in 200 μL medium to yield a final concentration of 0.1% (v/v) dimethyl sulfoxide) into individual wells of the plates. Four wells were designated to a single compound. The plates were allowed to incubate at 37°C for 96 h. Afterwards, the medium was aspirated and 3-[4,5-dimethylthiazol-2-yl]-2,5-diphenyltetrazolium bromide (MTT) (0.4 mg/mL) in medium was added to each well and subsequently incubated for 3 h. The medium was aspirated and 150 μL dimethyl sulfoxide (DMSO) was added to each well. The plates were vortexed followed by the measurement of absorbance at 540 nm on a microplate reader. The results were presented as inhibition (%) of proliferation in contrast to controls comprising 0.1%

[6] = test system: four human cancer cell lines (A-549, MCF-7, Panc-1, HT-29); assay: Antiproliferative assay, average over the four cancer cell lines (GI50); type: cell-based; conditions: average of the four cancer cell lines
Experimental: See Supplementary Materials.
as §1
To explore the antiproliferative potential of compounds propidium iodide fluorescence assay was performed using different cell lines such as Panc-1 (pancreas cancer cell line), MCF-7 (breast […]
as §3
DNA. Cells whose cell membranes are damaged or have changed permeability are counted as dead ones. The assay was performed by seeding the cells of different cell lines at a density of 3000- […]
The medium was removed; the compounds were added to the plates at 10 μM concentrations (in 0.1% DMSO) in triplicates, followed by incubation for 48h. DMSO (0.1%) was used as control. After incubation, medium was removed followed by the addition of PI (25 μl, 50μg/mL in water/medium) to each well of the plates. At - 80 °C, the plates were allowed to freeze for 24 h, followed by thawing at 25 °C. A fluorometer (Polar-Star BMG Tech) was used to record the readings at excitation and emission wavelengths of 530 and 620 nm for each well. The percentage cytotoxicity of compounds was calculated using […]
Where ATC= Absorbance of treated cells and AC= Absorbance of control. […]
positive control in the assay.

Row | Structure (SMILES) | IC50 [1] [µM] | IC50 [2] [µM] | IC50 [3] [µM] | IC50 [4] [µM] | GI50 [6] [µM] | melting point [°C] | viability at 96 h, 50 µM [5] [%]
1 | C#Cc1cccc(Nc2ncnc3cc(OCCOC)c(OCCOC)cc23)c1 [Erlotinib, reference compound] | 0.03 ± 0.003 | 0.04 ± 0.003 | 0.03 ± 0.003 | 0.03 ± 0.003 |  |  | 
2 | CCc1c(C(=O)NCC(c2ccccc2)c2c(-c3ccccc3)[nH]c3ccccc23)[nH]c2ccc(Cl)cc12 (stereo not drawn) [Compound Vc, 5-Chloro-3-ethyl-N-(2-phenyl-2-(2-phenyl-1H-indol-3-yl)ethyl)-1H-indole-2-carboxamide] | 0.054 ± 0.005 | 0.057 ± 0.005 | 0.056 ± 0.005 | 0.055 ± 0.005 | 0.056 | 110 to 112 | 91
3 | Cc1c(C(=O)NCC(c2ccccc2)c2c(-c3ccccc3)[nH]c3ccccc23)[nH]c2ccc(Cl)cc12 (stereo not drawn) [Vb, 5-Chloro-3-methyl-N-(2-phenyl-2-(2-phenyl-1H-indol-3-yl)ethyl)-1H-indole-2-carboxamide] | 0.058 ± 0.005 | 0.061 ± 0.006 | 0.058 ± 0.005 | 0.059 ± 0.005 | 0.059 | 135 to 137 | 88
4 | NCC(c1ccccc1)c1c(-c2ccccc2)[nH]c2ccccc12 (stereo not drawn) [Compound IV, 2-phenyl-2-(2-phenyl-1H-indol-3-yl)ethan-1-amine] | 0.102 ± 0.01 | 0.106 ± 0.01 | 0.104 ± 0.01 | 0.104 ± 0.01 | 0.104 | 167 to 169 | 92

Second part, led by results:

Row | IC50 [1] [µM] | IC50 [2] [µM] | IC50 [3] [µM] | IC50 [4] [µM] | GI50 [6] [µM] | melting point [°C] | Structure (SMILES) | viability at 96 h, 50 µM [5] [%]
5 | 0.064 ± 0.006 | 0.068 ± 0.006 | 0.066 ± 0.006 | 0.066 ± 0.006 | 0.066 | 130 to 132 | CCc1c(C(=O)NCC(c2ccccc2)c2c(-c3ccccc3)[nH]c3ccccc23)[nH]c2ccc(Br)cc12 (stereo not drawn) [Vd, 5-Bromo-3-ethyl-N-(2-phenyl-2-(2-phenyl-1H-indol-3-yl)ethyl)-1H-indole-2-carboxamide] | 89
6 | 0.086 ± 0.008 | 0.089 ± 0.008 | 0.085 ± 0.008 | 0.085 ± 0.008 | 0.086 | 225 to 227 | CCc1c(C(=O)NCC(c2ccccc2)c2c(-c3ccccc3)[nH]c3ccccc23)oc2ccc(Cl)cc12 (stereo not drawn) [Vi, 5-Chloro-3-ethyl-N-(2-phenyl-2-(2-phenyl-1H-indol-3-yl)ethyl)benzofuran-2-carboxamide] | 89

From publication PMC10385579, “Design, Synthesis, and Biological Evaluation of Indole-2-carboxamides as Potential Multi-Target Antiproliferative Agents” (Pharmaceuticals, 2023)
